Results reported in ChEMBL document CHEMBL1139410, “Potent CCR4 antagonists: synthesis, evaluation, and docking study of 2,4-diaminoquinazolines” (Bioorg Med Chem, 2008).

How the values were obtained:
[1] = molecular target: T1, C-C chemokine receptor type 4 (Homo sapiens, UniProt P51679); assay: Antagonist activity at human CCR4 receptor by [35S]GTPgammaS binding assay; format: functional
T1 sequence (P51679 whole entry): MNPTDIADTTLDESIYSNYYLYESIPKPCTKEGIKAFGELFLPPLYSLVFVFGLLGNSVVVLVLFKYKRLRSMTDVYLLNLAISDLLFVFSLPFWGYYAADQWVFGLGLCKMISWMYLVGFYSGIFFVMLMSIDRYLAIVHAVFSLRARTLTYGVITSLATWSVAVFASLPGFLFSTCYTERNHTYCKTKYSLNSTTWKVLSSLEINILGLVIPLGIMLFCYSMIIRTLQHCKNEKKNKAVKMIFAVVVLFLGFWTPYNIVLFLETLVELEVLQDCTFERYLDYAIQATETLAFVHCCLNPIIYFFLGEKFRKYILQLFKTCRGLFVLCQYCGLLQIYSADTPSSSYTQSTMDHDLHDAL

[2] = molecular target: T2, C-C chemokine receptor type 4 (Mus musculus) (UniProt P51680); assay: Antagonist activity at mouse CCR4 receptor assessed as inhibition of CCL22-induced chemotaxis at 1 uM by bioluminescent assay; format: functional
T2 sequence (whole entry): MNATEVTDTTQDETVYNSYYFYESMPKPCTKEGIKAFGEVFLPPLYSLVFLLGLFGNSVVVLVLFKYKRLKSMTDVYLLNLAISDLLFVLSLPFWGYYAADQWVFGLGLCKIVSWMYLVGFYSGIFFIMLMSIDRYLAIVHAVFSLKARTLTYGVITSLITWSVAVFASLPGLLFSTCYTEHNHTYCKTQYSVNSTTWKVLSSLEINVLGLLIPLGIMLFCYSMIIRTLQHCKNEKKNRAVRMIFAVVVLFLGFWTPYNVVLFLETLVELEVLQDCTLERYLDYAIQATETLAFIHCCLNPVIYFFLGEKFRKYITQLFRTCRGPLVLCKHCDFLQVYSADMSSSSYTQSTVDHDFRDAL

[3] = molecular target: T1, C-C chemokine receptor type 4; assay: Displacement of […]CCL22 from human CCR4 receptor by scintillation proximity assay
Mus musculus = assay: Antiinflammatory activity against oxazolone-induced contact hypersensitivity in acute dermatitis BALB/c mouse model assessed as inhibition of ear swelling at 30 mg/kg, sc administered twice daily before 0.5 hrs and after 8 hrs of oxazolone challenge assessed after 24 hrs; format: functional; settings: route subcutaneous
[4] = molecular target: T3, C-C chemokine receptor type 4 (Homo sapiens) (UniProt P51679); assay: Antagonist activity at human CCR4 receptor assessed as inhibition of CCL22-induced chemotaxis at 1 uM by bioluminescent assay; format: functional
T3 sequence (whole entry): T1 sequence (P51679 whole entry)

SMILES	IC50 [1]	inhibition [2]	IC50 [3]	inhibition [4]	inhibition in vivo at 30 mg/kg (Mus musculus)
COc1cc2nc(N3CCCN(CCN4CCCCC4)CC3)nc(Nc3ccc(Cl)cc3)c2cc1OC	0.13 µM				
COc1cc2nc(N3CCC(N4CCCC4)CC3)nc(Nc3ccc(Cl)cc3)c2cc1OC	0.024 µM		0.15 µM		42.5%
COc1cc2nc(N3CCC(N4CCCC4)CC3)nc(Nc3cccc(Br)c3)c2cc1OC	0.22 µM	11%	0.51 µM	36%	
COc1cc2nc(N3CCC(N4CCCC4)CC3)nc(Nc3ccc(F)c(F)c3)c2cc1OC	0.025 µM				
COc1cc2nc(N3CCCN(C4CCCCC4)CC3)nc(Nc3ccc(Cl)cc3)c2cc1OC	0.55 µM				
COc1cc2nc(N3CCC(N4CCCC4)CC3)nc(Nc3ccc(F)cc3)c2cc1OC	0.031 µM				
CCN(CC)CCN1CCCN(c2nc(Nc3ccc(Cl)cc3)c3cc(OC)c(OC)cc3n2)CC1	0.092 µM	42%		15%	
COc1cc2nc(N3CCCN(CCN4CCCC4)CC3)nc(Nc3ccc(Cl)cc3)c2cc1OC	0.15 µM				

More lines, main results first:

IC50 [1]	inhibition [2]	IC50 [3]	inhibition [4]	SMILES	inhibition in vivo at 30 mg/kg (Mus musculus)
0.061 µM	42%			COc1cc2nc(N3CCC(N(C)CCCCO)CC3)nc(Nc3ccc(Cl)cc3)c2cc1OC	
0.098 µM			47%	COc1cc2nc(N3CCC(N(C)CCO)CC3)nc(Nc3ccc(Cl)cc3)c2cc1OC	
0.043 µM	32%			COc1cc2nc(N3CCC(N(C)CCCO)CC3)nc(Nc3ccc(Cl)cc3)c2cc1OC	
